Source: patent publication EP4813979A1, “COMPOUND FOR EGFR PROTEIN DEGRADATION AND USE THEREOF” (TYK Medicines, Inc., priority 2023, dated 2025)
Where two headings read alike, the source gives them in different places.

Legend:
[1] = biological target: EGFR in Baf3-L858R-T790M-C797S (Homo sapiens, UniProt P00533, C797S/L858R/T790M); experiment: EGFR PROTAC HTRF experiment (total EGFR degradation); format: cell-based
Description: (§1) [table] Among them, B[…] -C797S (abbreviated as Baf3-DTC) is a stable Ba/F3 clone expressing exogenous EGFR gene bearing T790M, C797S and […] triple amino acid mutations, purchased from KYinno; Baf3-L858R-T790M - C797S (abbreviated as Baf3-LTC) is a stable Ba/F3 clone expressing exogenous EGFR gene bearing […], T790M, C797S triple mutations, purchased from KYinno. [table] [table] Dilutded Eu and d2 antibodies 2μl per well with detection buffer 20-fold. Then mixed the two antibody vials thoroughly. [table] Opened EnVision , locate the HTRF program, configured the board, and then read […]. The fitted curve, DC50 and Dmax of this compound could be generated using GraphPad Prism .

[2] = biological target: EGFR in Baf3-19del-T790M-C797S (Homo sapiens, UniProt P00533, C797S/DEL746-750/T790M); experiment: as above; format: cell-based
Description: as §1

[3] = Pharmacokinetic tests in male SD rats; format: in vivo; settings: oral gavage (po), 10 mg/kg, plasma; for AUC(0-inf) / AUC(0-t) / Cmax / MRT last / Tmax: rat
How it was run: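 Fasted male SD rats (n=3) dosed 10 mg/kg by oral gavage as 1 mg/mL solution in 10% DMSO/90% 0.5% MC. Tail-vein EDTA plasma sampled 0.5–24 h, parent drug quantified by LC-MS/MS; AUC, T1/2, Cmax, Tmax by non-compartmental analysis.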

[4] = Baf3-LTC, incubated 16 hours, HTRF total EGFR; read-out: Baf3-LTC DC50
[5] = Baf3-LTC, incubated 16 hours, HTRF total EGFR; read-out: Baf3-LTC Dmax
[6] = Baf3-DTC, incubated 16 hours, HTRF total EGFR; read-out: Baf3-DTC DC50
[7] = Baf3-DTC, incubated 16 hours, HTRF total EGFR; read-out: Baf3-DTC Dmax

Sequence of EGFR in Baf3-L858R-T790M-C797S (P00533 25-1210 T790M/C797S/L858R): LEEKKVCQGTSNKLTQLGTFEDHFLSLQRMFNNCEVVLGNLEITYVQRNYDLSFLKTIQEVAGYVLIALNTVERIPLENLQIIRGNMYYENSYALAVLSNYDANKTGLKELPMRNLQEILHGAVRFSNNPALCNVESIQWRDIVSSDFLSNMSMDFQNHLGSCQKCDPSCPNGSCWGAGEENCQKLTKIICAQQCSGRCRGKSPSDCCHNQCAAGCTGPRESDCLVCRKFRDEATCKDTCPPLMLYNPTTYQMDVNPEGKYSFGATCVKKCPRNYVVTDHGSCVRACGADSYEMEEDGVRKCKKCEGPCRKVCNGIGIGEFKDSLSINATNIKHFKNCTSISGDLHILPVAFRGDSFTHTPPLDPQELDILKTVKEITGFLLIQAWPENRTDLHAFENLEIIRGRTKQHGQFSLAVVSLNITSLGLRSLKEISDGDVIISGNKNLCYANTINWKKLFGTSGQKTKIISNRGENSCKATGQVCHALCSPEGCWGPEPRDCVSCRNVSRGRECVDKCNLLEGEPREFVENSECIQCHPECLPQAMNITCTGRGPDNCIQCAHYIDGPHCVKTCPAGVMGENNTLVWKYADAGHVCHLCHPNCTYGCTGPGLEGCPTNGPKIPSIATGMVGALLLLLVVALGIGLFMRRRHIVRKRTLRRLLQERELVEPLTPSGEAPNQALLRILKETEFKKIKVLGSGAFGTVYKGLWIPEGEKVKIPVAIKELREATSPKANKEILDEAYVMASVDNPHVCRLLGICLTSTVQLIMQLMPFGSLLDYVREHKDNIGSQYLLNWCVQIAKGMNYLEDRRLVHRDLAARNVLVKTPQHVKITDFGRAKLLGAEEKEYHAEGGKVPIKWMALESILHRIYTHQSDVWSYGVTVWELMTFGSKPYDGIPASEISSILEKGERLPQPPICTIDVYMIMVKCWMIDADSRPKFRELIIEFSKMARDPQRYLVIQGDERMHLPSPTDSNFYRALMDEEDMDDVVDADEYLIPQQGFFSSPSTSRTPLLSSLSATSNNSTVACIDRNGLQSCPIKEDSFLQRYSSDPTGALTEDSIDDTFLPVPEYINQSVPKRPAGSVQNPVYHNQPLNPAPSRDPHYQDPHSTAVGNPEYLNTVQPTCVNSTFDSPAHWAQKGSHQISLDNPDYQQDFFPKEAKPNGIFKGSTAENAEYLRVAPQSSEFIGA
Sequence of EGFR in Baf3-19del-T790M-C797S (P00533 with tags, fused parts or gaps DEL746-750/T790M/C797S): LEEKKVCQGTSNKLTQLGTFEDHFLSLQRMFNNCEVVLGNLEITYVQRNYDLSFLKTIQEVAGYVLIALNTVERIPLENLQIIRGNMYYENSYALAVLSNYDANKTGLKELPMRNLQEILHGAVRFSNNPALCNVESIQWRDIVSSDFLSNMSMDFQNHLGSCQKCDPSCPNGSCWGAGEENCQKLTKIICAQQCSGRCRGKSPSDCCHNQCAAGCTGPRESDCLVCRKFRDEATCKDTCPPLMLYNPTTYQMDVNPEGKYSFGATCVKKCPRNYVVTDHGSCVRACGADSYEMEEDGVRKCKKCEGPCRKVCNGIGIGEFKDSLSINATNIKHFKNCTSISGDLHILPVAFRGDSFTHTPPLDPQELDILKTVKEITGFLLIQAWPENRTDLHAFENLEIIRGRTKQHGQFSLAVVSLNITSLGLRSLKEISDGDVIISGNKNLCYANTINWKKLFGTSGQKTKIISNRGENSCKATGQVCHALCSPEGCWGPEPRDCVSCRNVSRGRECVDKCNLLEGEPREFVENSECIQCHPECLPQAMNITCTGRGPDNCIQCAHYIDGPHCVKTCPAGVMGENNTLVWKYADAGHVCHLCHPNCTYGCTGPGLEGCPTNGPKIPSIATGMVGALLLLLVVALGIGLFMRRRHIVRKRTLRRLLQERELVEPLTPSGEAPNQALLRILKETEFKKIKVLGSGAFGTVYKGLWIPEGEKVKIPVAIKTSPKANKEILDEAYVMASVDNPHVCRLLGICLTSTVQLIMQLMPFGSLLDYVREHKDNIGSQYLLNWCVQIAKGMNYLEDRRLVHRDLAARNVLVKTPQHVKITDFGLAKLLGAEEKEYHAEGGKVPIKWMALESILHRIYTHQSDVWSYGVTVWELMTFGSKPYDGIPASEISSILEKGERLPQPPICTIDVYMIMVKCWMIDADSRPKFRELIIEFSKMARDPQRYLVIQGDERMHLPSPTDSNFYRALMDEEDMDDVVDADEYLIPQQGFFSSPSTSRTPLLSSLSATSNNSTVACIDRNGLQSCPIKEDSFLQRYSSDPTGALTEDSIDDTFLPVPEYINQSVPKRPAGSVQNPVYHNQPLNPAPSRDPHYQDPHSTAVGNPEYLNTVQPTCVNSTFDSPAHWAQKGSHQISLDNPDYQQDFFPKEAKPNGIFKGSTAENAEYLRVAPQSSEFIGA

| Compound | DC50 [1, 4] | Dmax [1, 5] | DC50 [2, 6] | Dmax [2, 7] | HL [3] | AUC(0-inf) [3] | AUC(0-t) [3] | Cmax [3] | MRT last [3] | Tmax [3] | DC50 ([1]; read-out: Baf3-LTC DC50; Baf3-LTC, incubated 16 hours, HTRF total EGFR) | Dmax ([1]; read-out: Baf3-LTC Dmax) | DC50 ([2]; read-out: Baf3-DTC DC50; Baf3-DTC, incubated 16 hours, HTRF total EGFR) | Dmax ([2]; read-out: Baf3-DTC Dmax) |
| --- | --- | --- | --- | --- | --- | --- | --- | --- | --- | --- | --- | --- | --- | --- |
| COc1cc(N2CCC(CN3CCN(c4ccc5c(c4)C(=O)N(C4CCC(=O)NC4=O)C5=O)CC3)CC2)c(-c2cnn(C)c2)cc1Nc1ncc(Br)c(Nc2ccc(C3CC3)cc2P(C)(C)=O)n1 (centres unmarked) [DZL-1, reference compound] | 10 to 100 nM | 70 to 100% | 10 to 100 nM | 70 to 100% | 3.08 h | 8460 ng·h/mL | 8070 ng·h/mL | 699 ng/mL | 6.11 h | 4 h | – | – | – | – |
| CCc1cc(Nc2ncc(Cl)c(Nc3ccccc3P(C)(C)=O)n2)c(OC)cc1N1CC2(CCN(C(=O)CN3CCC(c4cc5c(cc4F)c(N4CCC(=O)NC4=O)nn5C)C(F)(F)C3)CC2)C1 (centres unmarked) [TA-023] | 10 to 100 nM | 70 to 100% | 10 to 100 nM | 70 to 100% | 3.99 h | 3980 ng·h/mL | 3920 ng·h/mL | 580 ng/mL | 5.1 h | 2 h | – | – | – | – |
| CCc1cc(Nc2ncc(Cl)c(Nc3ccccc3P(C)(C)=O)n2)c(OC)cc1N1CCN(C(=O)CN2CCC(c3cc4c(cc3F)c(N3CCC(=O)NC3=O)nn4C)CC2)CC1 [TC-213] | 10 to 100 nM | 70 to 100% | 10 to 100 nM | 70 to 100% | 3.48 h | 8150 ng·h/mL | 8070 ng·h/mL | 742 ng/mL | 6.22 h | 4 h | – | – | – | – |
| CCc1cc(Nc2ncc(Cl)c(Nc3ccccc3C(=O)NC)n2)c(OC)cc1N1CCN(C(=O)CN2CCC(c3cc4c(cc3F)c(N3CCC(=O)NC3=O)nn4C)C(F)(F)C2)CC1 (centres unmarked) [TA-003] | – | – | – | – | 3.22 h | 3800 ng·h/mL | 3770 ng·h/mL | 441 ng/mL | 5.63 h | 2 h | 10 to 100 nM | 70 to 100% | 10 to 100 nM | 70 to 100% |
| CCc1cc(Nc2ncc(Cl)c(Nc3ccccc3P(C)(C)=O)n2)c(OC)cc1N1CCN(C(=O)CN2CCC(c3cc4c(cc3F)c(N3CCC(=O)NC3=O)nn4C)C(F)(F)C2)CC1 (centres unmarked) [TC-157] | < 10 nM | – | < 10 nM | – | 2.66 h | 5800 ng·h/mL | 7530 ng·h/mL | 768 ng/mL | 5.52 h | 3.33 h | – | 70 to 100% | – | 70 to 100% |
